This passage reports Activity results from ChEMBL document CHEMBL1143372, “Synthesis of Pro-Xylane: a new biologically active C-glycoside in aqueous media” (2009).

Type in all cases: functional, Homo sapiens
The test system of assay [1] is NHDF. In words: Antiaging activity in NHDF assessed as D-[6-H3]-glucosamine incorporation into glycosaminoglycan fraction at 0.02 mM after 72 hrs relative to control.
Assay [2] has as its system NHDF. In words: Antiaging activity in NHDF assessed as D-[6-H3]-glucosamine incorporation into glycosaminoglycan fraction at 0.1 mM after 72 hrs relative to control.
Assay [3] has as its system NHDF. In words: Antiaging activity in NHDF assessed as D-[6-H3]-glucosamine incorporation into glycosaminoglycan fraction at 0.5 mM after 72 hrs relative to control.
Assay [4] concerns NHDF. In words: Antiaging activity in NHDF assessed as D-[6-H3]-glucosamine incorporation into glycosaminoglycan fraction at 0.3 mM after 72 hrs relative to control.
The test system of assay [5] is NHDF. In words: Antiaging activity in NHDF assessed as D-[6-H3]-glucosamine incorporation into glycosaminoglycan fraction at 1 mM after 72 hrs relative to control.
Assay [6] concerns NHDF. In words: Antiaging activity in NHDF assessed as D-[6-H3]-glucosamine incorporation into glycosaminoglycan fraction at 10 mM after 72 hrs relative to control.
For assay [7], the system named is NHDF. In words: Antiaging activity in NHDF assessed as D-[6-H3]-glucosamine incorporation into glycosaminoglycan fraction at 3 mM after 72 hrs relative to control.
Assay [8] relates to NHDF. In words: Antiaging activity in NHDF assessed as D-[6-H3]-glucosamine incorporation into glycosaminoglycan fraction at 0.08 mM after 72 hrs relative to control.
Assay [9] deals with NHDF. In words: Antiaging activity in NHDF assessed as D-[6-H3]-glucosamine incorporation into glycosaminoglycan fraction at 0.4 mM after 72 hrs relative to control.
Assay [10] relates to NHDF. In words: Antiaging activity in NHDF assessed as D-[6-H3]-glucosamine incorporation into glycosaminoglycan fraction at 2 mM after 72 hrs relative to control.

As for `O=C[C@H](O)[C@@H](O)[C@H](O)CO` [XYLOSE], the Activity was determined as 106% in assay [1], 85% in assay [2] and 52% in [3].

On to `O=C(C[C@@H]1OC[C@@H](O)[C@H](O)[C@H]1O)c1ccccc1`, for which the Activity in [4] is 102%; in [5], 95%; in [2] it was 120%.

Take `CC(=O)C[C@@H]1O[C@H](CO)[C@H](O)[C@H](O)[C@H]1O`: the Activity stood at 99% in [6], 136% in assay [5] and 119% in assay [7].

Consider `O[C@@H]1[C@H](O)[C@@H](O)OC[C@H]1O` [LYXOSE], for which the Activity is listed as 90% in assay [8], 102% in assay [9] and 86% in assay [10].

For the molecule `CC(O)C[C@@H]1OC[C@@H](O)[C@H](O)[C@H]1O` (stereo partly drawn), the Activity in assay [4] is given as 139%; in assay [5] it was 169%; in [7] it was 218%.

On to `CC(=O)C[C@@H]1OC[C@@H](O)[C@H](O)[C@H]1O`, for which the Activity in assay [6] was found to be 161%; in assay [9], 110%; in assay [10], 141%.
